Laboratory results: patent US20100316712A1, “PHARMACEUTICAL COMPOSITIONS FOR TREATMENT OF PARKINSON'S DISEASE AND RELATED DISORDERS” (Combinatorx, Incorporated, priority 2006, published 2010)
Where two headings read alike, the source gives them in different places.

Tests used:
[1] = doses of 400 mg per day; cited from earlier work
[2] = in vivo; cited from earlier work
[3] = Plasma carbidopa and levodopa after SINEMET CR alone or after carbidopa pre-dosing; format: in vivo; conditions: fed beagle dogs; for AUC(0-t): beagle, dog, plasma, po, read-out: AUC0-24; for increase in AUC0-24 / increase in peak concentrations: carbidopa pre-dosing + SINEMET CR vs SINEMET CR alone
Protocol: The following experiment was designed to determine if effective levodopa concentration in vivo is increased at the presence of a higher ratio of carbidopa to levodopa (as compared to that used in conventional therapy).
SINEMET® CR tablets (50 mg carbidopa/200 mg levodopa) were administered to fed beagle dogs either alone or after pre-dosing with 12.5 mg and 25 mg of carbidopa, and plasma concentrations of carbidopa and levodopa were measured over time (data not shown).

[4] = Carbidopa 12.5 mg pre-dose + SINEMET CR
[5] = Carbidopa 25 mg pre-dose + SINEMET CR
[6] = SINEMET CR (50 mg carbidopa/200 mg levodopa) alone

C[C@@](Cc1ccc(O)c(O)c1)(NN)C(=O)O [Carbidopa]
adverse effects [1]: fails to elicit adverse effects
fraction of an administered dose absorbed [2]: About 70%
AUC(0-t) [3, 4]: 592 ± 303 ng·h/mL
AUC(0-t) [3, 5]: 956 ± 534 ng·h/mL
AUC(0-t) [3, 6]: 215 ± 43 ng·h/mL
increase in AUC0-24 [3]: ~100%
increase in peak concentrations [3]: ~100%

N[C@@H](Cc1ccc(O)c(O)c1)C(=O)O [Levodopa, L-3,4-dihydroxyphenylalanine]
AUC(0-t) [3, 4]: 8640 ± 2060 ng·h/mL
AUC(0-t) [3, 5]: 7000 ± 3830 ng·h/mL
AUC(0-t) [3, 6]: 3900 ± 298 ng·h/mL
increase in AUC0-24 [3]: ~100%
increase in peak concentrations [3]: ~100%
